Measured values as given in the NIST ThermoML archive (doi:10.1021/je049661s).

Experiments:
[1] = xn = mol fraction of the nth substance listed; conditions: 101.3 kPa, Liquid
[2] = 101.3 kPa, Liquid

O=[N+]([O-])c1ccccc1 [nitrobenzene] + C1CCCCC1
[1]
Conditions | mass density, 298.15 K [kg/m3] | mass density, 303.15 K [kg/m3] | mass density, 308.15 K [kg/m3] | viscosity, 298.15 K [mPa·s] | viscosity, 303.15 K [mPa·s] | viscosity, 308.15 K [mPa·s]
x2 = 0 | 1198.5 | 1193.6 | 1191.1 | 1.686 | 1.619 | 1.554
x2 = 0.0951 | 1160.4 | 1158 | 1156 | 1.589 | 1.527 | 1.489
x2 = 0.1908 | 1121.8 | 1119.7 | 1117.6 | 1.482 | 1.423 | 1.385
x2 = 0.2875 | 1080.5 | 1078 | 1075.5 | 1.369 | 1.313 | 1.276
x2 = 0.3866 | 1037.9 | 1035 | 1031.9 | 1.26 | 1.21 | 1.168
x2 = 0.4828 | 996 | 993 | 990 | 1.167 | 1.117 | 1.074
x2 = 0.5865 | 950.4 | 947.6 | 945 | 1.083 | 1.032 | 0.9873
x2 = 0.685 | 907.2 | 905 | 902.3 | 1.022 | 0.968 | 0.9182
x2 = 0.7901 | 861.6 | 860 | 856.6 | 0.9712 | 0.9142 | 0.8626
x2 = 0.896 | 816.9 | 814.4 | 809.1 | 0.9338 | 0.874 | 0.8182

O=C1CCCCC1 [cyclohexanone]
[2]
Conditions | mass density [kg/m3] | viscosity [mPa·s]
298.15 K | 941 | 2.021
303.15 K | 937.4 | 1.806
308.15 K | 936.5 | 1.585

O=[N+]([O-])c1ccccc1 [nitrobenzene]
[2]
Conditions | mass density [kg/m3] | speed of sound [m/s] | viscosity [mPa·s]
298.15 K | 1198.5 | 1648.4 | 1.686
303.15 K | 1193.6 | – | 1.619
308.15 K | 1191.1 | – | 1.554

C1CCCCC1 [cyclohexane] + O=C1CCCCC1
[1], x1 = 1
Conditions | mass density [kg/m3] | viscosity [mPa·s]
298.15 K | 773.9 | 0.8945
303.15 K | 768.6 | 0.8284
308.15 K | 761.2 | 0.7637

O=[N+]([O-])c1ccccc1 [nitrobenzene] + O=C1CCCCC1
[1]
Conditions | mass density, 298.15 K [kg/m3] | mass density, 303.15 K [kg/m3] | mass density, 308.15 K [kg/m3] | speed of sound, 298.15 K [m/s] | speed of sound, 303.15 K [m/s] | speed of sound, 308.15 K [m/s] | viscosity, 298.15 K [mPa·s] | viscosity, 303.15 K [mPa·s] | viscosity, 308.15 K [mPa·s]
x2 = 0 | 1198.5 | 1193.6 | 1191.1 | 1648.4 | – | 1961 | 1.686 | 1.619 | 1.554
x2 = 0.098 | 1169.6 | 1167.6 | 1166.8 | 1696 | 1842.8 | 1991 | 1.752 | 1.645 | 1.556
x2 = 0.1946 | 1141.8 | 1140.8 | 1140.3 | 1733 | 1873 | 2019.9 | 1.785 | 1.666 | 1.557
x2 = 0.2933 | 1114.5 | 1113.4 | 1112.9 | 1764.1 | 1901.5 | 2041.5 | 1.802 | 1.678 | 1.559
x2 = 0.3938 | 1087.5 | 1085.6 | 1084.9 | 1790 | 1927.7 | 2058.6 | 1.812 | 1.685 | 1.561
x2 = 0.495 | 1061.3 | 1058.9 | 1057.9 | 1811.2 | 1945 | 2069.7 | 1.827 | 1.695 | 1.562
x2 = 0.592 | 1036.9 | 1034.5 | 1033.4 | 1825.7 | 1957 | 2076.4 | 1.848 | 1.704 | 1.565
x2 = 0.6945 | 1011.6 | 1009.6 | 1008.6 | 1839.8 | 1962 | 2080.5 | 1.879 | 1.721 | 1.567
x2 = 0.7966 | 987.5 | 985.7 | 985 | 1848.3 | 1963 | 2080 | 1.921 | 1.749 | 1.571
x2 = 0.8973 | 963.4 | 961.9 | 961.4 | 1853.5 | 1964.1 | 2081.5 | 1.97 | 1.778 | 1.577

O=C1CCCCC1 [cyclohexanone] + O=[N+]([O-])c1ccccc1
[1], x1 = 1
Conditions | mass density [kg/m3] | speed of sound [m/s] | viscosity [mPa·s]
298.15 K | 941 | 1847.7 | 2.021
303.15 K | 937.4 | – | 1.806
308.15 K | 936.5 | – | 1.585

C1CCCCC1 [cyclohexane]
[2]
Conditions | mass density [kg/m3] | viscosity [mPa·s]
298.15 K | 773.9 | 0.8945
303.15 K | 768.6 | 0.8284
308.15 K | 761.2 | 0.7637

O=C1CCCCC1 [cyclohexanone] + C1CCCCC1
[1]
Conditions | mass density, 298.15 K [kg/m3] | mass density, 303.15 K [kg/m3] | mass density, 308.15 K [kg/m3] | viscosity, 298.15 K [mPa·s] | viscosity, 303.15 K [mPa·s] | viscosity, 308.15 K [mPa·s]
x2 = 0 | 941 | 937.4 | 936.5 | 2.021 | 1.806 | 1.585
x2 = 0.0964 | 921.6 | 917.9 | 916.6 | 1.852 | 1.661 | 1.485
x2 = 0.2003 | 901.3 | 897.6 | 895.7 | 1.682 | 1.522 | 1.384
x2 = 0.2916 | 883.8 | 880.2 | 878.3 | 1.541 | 1.406 | 1.296
x2 = 0.3895 | 866 | 862.8 | 860.3 | 1.403 | 1.294 | 1.203
x2 = 0.4894 | – | 845.5 | 842.6 | – | 1.184 | 1.112
x2 = 0.4895 | 848.9 | – | – | 1.275 | – | –
x2 = 0.5886 | – | 828.7 | 825.6 | – | 1.084 | 1.025
x2 = 0.5887 | 832.5 | – | – | 1.163 | – | –
x2 = 0.6957 | 815.4 | 811.6 | 807.5 | 1.063 | 0.9925 | 0.9408
x2 = 0.7951 | 800.3 | 796.3 | 791.3 | 0.9917 | 0.9237 | 0.8704
x2 = 0.8968 | – | 781.8 | 775.5 | – | 0.8707 | 0.8101
x2 = 0.8969 | 786.5 | – | – | 0.9386 | – | –

C1CCCCC1 [cyclohexane] + O=[N+]([O-])c1ccccc1
[1], x1 = 1
Conditions | mass density [kg/m3] | viscosity [mPa·s]
298.15 K | 773.9 | 0.8945
303.15 K | 768.6 | 0.8284
308.15 K | 761.2 | 0.7637
